The subject of one assay is HTB-54 cells. The experiment in a line: MTT cell viability assay, HTB-54. It is filed as cell-based. The following applies: 10 µM, 48 h, MTT; for viability at 10 µM: HTB-54, read-out: Cell growth % at 10 µM, HTB-54. As for the experimental part: (§1) The cell lines were obtained from the American Type Culture Collection (ATCC). Five tumor cell lines (MDA-MB-231, MCF-7, HCT116, HTB-54, and DU-145) and two non-tumorigenic cells (184B5 and BEAS-2B) were grown in RPMI 1640 medium (Gibco), and the HT-29 tumor cell line was grown in McCoy’s medium. Both mediums were supplemented with 10% fetal bovine serum (FBS; Gibco) and 1% antibiotics (10.00 units/mL penicillin and 10.00 μg/mL streptomycin; Gibco). Cells were preserved in tissue culture flasks at 37 °C and 5% CO2. The culture medium was replaced every three days.
(§2) The effect of each compound on cell viability was tested using the MTT assay. […] Selected compounds were then tested at seven different concentrations (0.5–100 μM) in MCF-7, HCT116, HT-29, HTB-54, 184B5 and BEAS-2B cells. Cells were seeded at 10^4 per well onto flat-bottomed 96-well culture plates. They were treated with either DMSO or increasing concentration of the corresponding compound for 48 h. Then, they were incubated with 20 μL of 3-(4,5-dimethylthiazol-2-yl)-2,5-diphenyltetrazolium bromide (MTT) (2 mg /mL stock; Aldrich) for 2,5 h and analyzed for their ability to generate a purple formazan dye. These formazan crystals were dissolved in 50 μL of DMSO. The absorbance was measured at a wavelength of 550 nm and the ratio of viable cells was calculated.
(§3) Results are expressed as cell viability % at 10 μM. Selectivity index were calculated as the ratio of the IC50 values determined for the non-malignant and the tumor cells in breast (IC50 (184B5)/IC50 (MCF-7)) and lung (IC50 (BEAS-2B)/IC50 (HTB-54)) cell lines. Data were obtained from at least three independent experiments performed in triplicates.
Background: Tetrazolium assays rely on reduction of a dye to a coloured formazan, in cell work by metabolically active cells.

The subject of another assay is MDA-MB-231 cells. The experiment in a line: MTT cell viability assay, MDA-MB-231. It is filed as cell-based. The following applies: for viability at 10 µM: Homo sapiens, MDA-MB-231, 48 h, read-out: Cell growth % at 10 µM, MDA-MB-231. As for the experimental part:
as §1, §2, §3

A further assay relates to DU-145 cells. In words: MTT cell viability assay, DU-145. Format: cell-based. The following applies: for viability at 10 µM: Homo sapiens, DU-145, 48 h, read-out: Cell growth % at 10 µM, DU-145. The protocol: as §1, §2, §3
In another assay the test system is HT-29 cells. The experiment in a line: MTT cell viability assay, HT-29. It is filed as cell-based. To be noted: 48 h; for viability at 10 µM: Homo sapiens, HT-29, 10 µM, read-out: Cell growth % at 10 µM, HT-29. The protocol: as §1, §2, §3
Another assay deals with T1, AChE (Rattus norvegicus, UniProt P37136).
T1 construct: from tissue; host or cells: frontal cortex of male Wistar rats (crude homogenate)
T1 sequence (P37136 32-614): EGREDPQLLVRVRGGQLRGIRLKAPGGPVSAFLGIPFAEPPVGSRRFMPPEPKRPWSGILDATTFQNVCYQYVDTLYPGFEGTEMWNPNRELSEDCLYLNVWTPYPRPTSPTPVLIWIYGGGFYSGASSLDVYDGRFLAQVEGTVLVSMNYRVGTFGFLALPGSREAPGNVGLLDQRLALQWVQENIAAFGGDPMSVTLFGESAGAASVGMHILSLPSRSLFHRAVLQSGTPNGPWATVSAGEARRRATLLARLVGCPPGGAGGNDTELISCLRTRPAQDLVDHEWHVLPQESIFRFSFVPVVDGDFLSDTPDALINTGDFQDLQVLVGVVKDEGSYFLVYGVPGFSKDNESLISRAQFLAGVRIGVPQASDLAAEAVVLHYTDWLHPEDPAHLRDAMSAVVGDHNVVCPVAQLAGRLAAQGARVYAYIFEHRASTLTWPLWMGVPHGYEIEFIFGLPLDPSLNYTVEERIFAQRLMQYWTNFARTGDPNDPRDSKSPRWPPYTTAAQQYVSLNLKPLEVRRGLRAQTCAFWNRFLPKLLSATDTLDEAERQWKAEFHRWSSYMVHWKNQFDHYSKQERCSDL
In words: AChE inhibition by Ellman's method (rat frontal cortex homogenate). To be noted: at 10^−6 M, Ellman's method. It is filed as biochemical. The protocol: Frontal cortex tissue obtained from male Wistar rats was homogenized in 39 volumes of 75 mM sodium phosphate buffer (pH 7.4). A mixture of 260 μL containing the compounds assessed, acetylthiocholine iodide and 5 μL tissue homogenate was incubated for 8 min. The reaction was then terminated by adding 50 μL 3% (w/v) sodium dodecyl sulphate followed by 50 μL 0.2% (w/v) 5,5′-dithio-bis(2-nitrobenzoic) acid to produce the yellow anion of 5-thio-2-nitro-benzoic-acid. The extent of the color production was measured spectrophotometrically at 405 nm using Multiskan Ex (Thermo Electron Corporation). […] Results are expressed as the mean ± SD and each experiment was repeated three times.
(Ellman's reagent forms a yellow product with free thiols.)

Some results are limits rather than exact numbers.

`C#CC[Se]C(=O)[C@@H](C)c1ccc2cc(OC)ccc2c1` [Compound 16b, Se-prop-2-ynyl (S)-2-(6-methoxynaphthalen-2-yl)propaneselenoate]: the viability at 10 µM in the assay with HTB-54 cells was greater than 100%; with MDA-MB-231 cells, 29.8 ± 9.6%; in the assay with DU-145 cells it was 66.4 ± 4.4%; in the assay with HT-29 cells, 65.7 ± 10%. The inhibition (as a rule, the percentage by which the read-out fell short of the control) at 1 µM against AChE came to 16.2 ± 2.3%.
For `C=CC[Se]C(=O)c1cccs1` [Compound 9a, Se-allyl thiophene-2-carboselenoate], in that order: 64.8 ± 8.5%, 89.4 ± 4.9%, 48.6 ± 6.2%, 99.5 ± 8.3% and 25.9 ± 2.4%.
For `C#CC[Se]C(=O)c1ccco1` [Compound 11b, Se-prop-2-ynyl furan-2-carboselenoate], in that order: 75.4 ± 15.5%, 99 ± 11.2%, 70 ± 4.5%, greater than 100% and 27.2 ± 4.1%.
`C=CC[Se]C(=O)c1cccnc1` [Compound 7a, Se-allyl pyridine-3-carboselenoate]: the viability at 10 µM worked out at 22 ± 5.1% with HTB-54 cells, 35.3 ± 6.4% in the assay on MDA-MB-231 cells, 51.7 ± 9.8% in the assay with DU-145 cells and 64.3 ± 14.1% in the assay with HT-29 cells. Also, on AChE, the inhibition at 1 µM amounted to 13.6 ± 5.5%.
Consider `C=CC[Se]C(=O)c1ccccc1Cl` [Compound 3a, Se-allyl 2-chlorobenzoselenoate], for which the viability at 10 µM was 37.5 ± 7.3% in the assay with HTB-54 cells, 29.7 ± 6.4% in the assay on MDA-MB-231 cells, 39.8 ± 6.3% in the assay with DU-145 cells and 63.2 ± 16.9% in the assay on HT-29 cells. Testing at 1 µM against AChE gave an inhibition of 21.5 ± 7.5%.
With `C=CC[Se]C(=O)c1ccccc1Nc1cccc(C)c1C` [Compound 18a, Se-allyl 2-(2,3-dimethylphenyl)aminebenzoselenoate], the viability at 10 µM in the assay with HTB-54 cells worked out at 40.9 ± 18.5%; with MDA-MB-231 cells, 85.9 ± 9.5%; with DU-145 cells, 74.7 ± 13.7%; in the assay with HT-29 cells, 71.5 ± 11.7%. At AChE, this molecule had an inhibition at 1 µM of 18.4 ± 3.6%.
With `C#CC[Se]C(=O)/C=C/c1ccccc1` [Compound 5b, Se-prop-2-ynyl 3-phenylprop-2E-eneselenoate], the viability at 10 µM came to 79.8 ± 7.7% in the assay with HTB-54 cells, 64.8 ± 14.7% with MDA-MB-231 cells, 70.5 ± 11.5% in the assay on DU-145 cells and 80.8 ± 8.5% in the assay with HT-29 cells. The molecule also had an inhibition at 1 µM against AChE of 26 ± 3.7%.
As for `C#CC[Se]C(=O)c1ccccc1Nc1cccc(C(F)(F)F)c1` [Compound 19b], the viability at 10 µM turned out to be 43.6 ± 18.4% in the assay with HTB-54 cells, 92.8 ± 10.2% in the assay with MDA-MB-231 cells, 25.2 ± 2.2% in the assay on DU-145 cells and 61.6 ± 9.8% in the assay with HT-29 cells. Also, the inhibition at 1 µM against AChE was determined as 21.1 ± 2.6%.
For `C=CC[Se]C(=O)c1ccc2c(c1)OCO2` [Compound 4a, Se-allyl benzodioxole-5-carboselenoate], in that order: 67.6 ± 15.1%, 97.3 ± 10.4%, greater than 100%, 33.6 ± 12.6% and 2.5 ± 9.3%.
Turning to “Se-prop-2-ynyl 3a,7a-dihydrobenzo[d][1,3]dioxole-5-carboselenoate [Compound 4b]”, in the assay on HTB-54 cells, the “Cell growth % at 10 µM, HTB-54” value amounted to 57.8 ± 8.1%. Further, the “Cell growth % at 10 µM, MDA-MB-231” value in the assay on MDA-MB-231 cells (48 h) amounted to 62.6 ± 7.4%. The “Cell growth % at 10 µM, DU-145” value in the assay with DU-145 cells (48 h) is 19.7 ± 2.2%. In the assay with HT-29 cells (10 µM), the “Cell growth % at 10 µM, HT-29” value is recorded as 50.6 ± 7.8%. For the same molecule, the “% AChE Inhibition” value at AChE is reported as 16.5 ± 10.6%.
On to `C=CC[Se]C(=O)c1ccccc1Nc1cccc(C(F)(F)F)c1` [Compound 19a, Se-allyl 2-(3-trifluoromethylphenyl)aminobenzoselenoate], for which the viability at 10 µM was 16.3 ± 7.6% in the assay with HTB-54 cells, 81.6 ± 9.7% in the assay on MDA-MB-231 cells, 17 ± 2.9% in the assay on DU-145 cells and 46 ± 8.7% with HT-29 cells. Further, the inhibition at 1 µM against AChE came to 19.3 ± 2%.
For the molecule `C#CC[Se]C(=O)CCc1ccccc1` [Compound 6b, Se-prop-2-ynyl 3-phenylpropaneselenoate], the viability at 10 µM in the assay on HTB-54 cells is 83.4 ± 7.7%; in the assay with MDA-MB-231 cells, 78.9 ± 8.4%; in the assay on DU-145 cells it was 76.6 ± 12%. On AChE, this molecule registered an inhibition at 1 µM of 24.5 ± 6.7%.
On to `C=CC[Se]C(=O)c1ccco1` [Compound 11a, Se-allyl 4-furan-2-carboselenoate], for which the viability at 10 µM was 30.7 ± 6.2% with HTB-54 cells, 34.1 ± 10.6% in the assay on MDA-MB-231 cells, 35.3 ± 5.8% with DU-145 cells and 79.8 ± 16.3% in the assay on HT-29 cells. Moreover, the inhibition at 1 µM on AChE is 18.6 ± 2.8%.
For `C=CC[Se]C(=O)c1ccccc1` [Compound 2a, Se-allyl benzoselenoate], in that order: 43.2 ± 9%, 37.9 ± 3.6%, 65.6 ± 5.6%, 85.3 ± 19.4% and 22.6 ± 1.6%.
On to `C#CC[Se]C(=O)c1ccccc1O` [Compound 13b, Se-prop-2-ynyl 2-hydroxybenzoselenoate], for which the viability at 10 µM came out at 82.1 ± 7.6% with HTB-54 cells, 52.3 ± 7.9% in the assay on MDA-MB-231 cells, 26.8 ± 5.5% in the assay with DU-145 cells and 70.2 ± 13.2% in the assay on HT-29 cells. This molecule also showed an inhibition at 1 µM on AChE of 21.5 ± 9.5%.
As for `C#CC[Se]C(=O)C(C)c1ccc(CC(C)C)cc1` (stereo not drawn) [Compound 15b, Se-prop-2-ynyl 2-(4-isobutylphenyl)propaneselenoate], the viability at 10 µM in the assay on HTB-54 cells was 95.6 ± 5.7%; in the assay with MDA-MB-231 cells, 59.7 ± 15.7%; with DU-145 cells, 34.7 ± 6.3%; in the assay on HT-29 cells, 59.3 ± 4%. At AChE, this molecule displayed an inhibition at 1 µM of 8.5 ± 11.1%.
`C=CC[Se]C(=O)/C=C/c1ccccc1` [Compound 5a, Se-allyl 3-phenylprop-2E-eneselenoate]: the viability at 10 µM in the assay on HTB-54 cells turned out to be 46.1 ± 5.6%; with MDA-MB-231 cells, 91.1 ± 16.8%; with DU-145 cells, 83.3 ± 7.8%; in the assay with HT-29 cells, 87.6 ± 7.9%. On AChE, this molecule came in with an inhibition at 1 µM of 8.7 ± 4.9%.
On to `C#CC[Se]C(=O)c1ccccc1OC(C)=O` [Compound 14b, 2-(prop-2-ynylselanyl)carbonylphenylacetate], for which the viability at 10 µM worked out at 78.9 ± 9% in the assay with HTB-54 cells, 52.3 ± 7.1% with MDA-MB-231 cells, 25.5 ± 6.2% with DU-145 cells and 65.6 ± 7.3% in the assay with HT-29 cells. Moreover, testing at 1 µM against AChE gave an inhibition of 21.1 ± 5.2%.
Take `C#CC[Se]C(=O)c1sccc1Cl` [Compound 10b, Se-prop-2-ynyl 3-chlorothiophene-2-carboselenoate]: the viability at 10 µM in the assay with HTB-54 cells was determined as 81.2 ± 11.6%; in the assay with MDA-MB-231 cells it was 62.5 ± 7.7%; with DU-145 cells it was 66.6 ± 8.7%; in the assay with HT-29 cells it was 80.2 ± 10.9%. For the same molecule, on AChE, the inhibition at 1 µM was 24.4 ± 7.1%.
With `C#CC[Se]C(=O)c1cccnc1Cl` [Compound 8b, Se-prop-2-ynyl 2-chloropyridine-3-carboselenoate], the viability at 10 µM in the assay on HTB-54 cells worked out at 99.4 ± 16.2%; in the assay on MDA-MB-231 cells it was 92.9 ± 16.5%; with DU-145 cells it was 77.1 ± 13.9%; in the assay on HT-29 cells, 87.7 ± 10.1%. The inhibition at 1 µM against AChE is 17.1 ± 10.1%.

These data come from publication PMC9854712 (Antioxidants, 2023).
